Like-named read-outs stand apart in the source and are kept apart here.
Key:
[1] = system: HAP1 MTAP-deleted cell line; experiment: SDMA in-cell western assay, HAP1 MTAP-deleted; type: cell-based; details: for IC50: Homo sapiens; for MTAP intact/deleted ratio: IC50 ratio HAP1 MTAP-intact vs HAP1 MTAP-deleted, SDMA in-cell western
Procedure, shortened: (§1)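 MTAP-null vs endogenous-MTAP HAP1 isogenic cells; in-cell western SDMA readout; IC50 per line.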

[2] = system: HAP1 MTAP-deleted cell line; experiment: Viability assay, MTAP-deleted cell line; type: cell-based; details: Homo sapiens
From the text: Table 1 additionally indicates IC50 values in a viability assay for the MTAP-deleted cell line (column 10), indicating the effect of treatment with compound on cell survival.

[3] = system: HAP1 MTAP-intact cell line; experiment: SDMA in-cell western assay, HAP1 MTAP-intact; type: cell-based; details: Homo sapiens
Procedure, shortened: as §1

[4] = molecular target: T1, PRMT5 (Homo sapiens, UniProt O14744); experiment: PRMT5 biochemical IC50 assay with SAM as cofactor; details: PRMT5, SAM as cofactor; read-out: SAM IC50
T1 construct: purchased Viva (custom protein)

[5] = molecular target: T1, PRMT5; experiment: PRMT5 biochemical IC50 assay with no cofactor; details: PRMT5, no cofactor; read-out: No Cofactor/rel IC50
From the text: Table 1 indicates IC50 values (μM) against PRMT5 for exemplary compounds in the presence of SAM as cofactor, with no cofactor, and with MTA as cofactor, respectively (columns 4-6). […] Ki values can be calculated from the IC50 values as described in the Examples section. As detailed in the Examples section, for the assay performed in the presence of SAM, IC50=Ki×1.5 (Ki=IC50/1.5).

[6] = molecular target: T1, PRMT5; experiment: PRMT5 biochemical IC50 assay with MTA as cofactor; details: PRMT5, MTA as cofactor; read-out: MTA IC50
[7] = HAP1, SDMA in-cell western, HAP1 MTAP-deleted, read-out: HAP1 MTAP deleted IC50
[8] = HAP1, viability assay, MTAP-deleted cell line, read-out: HAP1 MTAP deleted viability
[9] = HAP1, SDMA in-cell western, HAP1 MTAP-intact, read-out: MTAP HAP1 intact IC50

T1 sequence (O14744 whole entry): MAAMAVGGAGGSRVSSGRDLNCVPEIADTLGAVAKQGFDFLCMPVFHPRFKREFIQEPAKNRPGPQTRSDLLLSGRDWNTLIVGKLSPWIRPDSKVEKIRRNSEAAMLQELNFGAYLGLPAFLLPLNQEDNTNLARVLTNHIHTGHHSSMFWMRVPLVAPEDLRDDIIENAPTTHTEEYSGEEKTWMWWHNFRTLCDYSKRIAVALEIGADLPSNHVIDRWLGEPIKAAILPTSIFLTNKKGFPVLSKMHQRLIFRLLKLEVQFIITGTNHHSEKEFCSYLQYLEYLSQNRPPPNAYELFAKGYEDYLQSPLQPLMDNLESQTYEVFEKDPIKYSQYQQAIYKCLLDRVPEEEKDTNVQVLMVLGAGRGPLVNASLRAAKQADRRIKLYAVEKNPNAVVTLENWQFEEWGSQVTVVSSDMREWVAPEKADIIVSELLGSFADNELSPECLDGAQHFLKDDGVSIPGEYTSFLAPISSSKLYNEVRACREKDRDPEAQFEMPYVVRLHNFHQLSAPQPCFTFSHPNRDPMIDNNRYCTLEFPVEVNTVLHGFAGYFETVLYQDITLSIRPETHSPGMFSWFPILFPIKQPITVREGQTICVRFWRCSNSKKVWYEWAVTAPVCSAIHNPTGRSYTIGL
T1 sequence (Q9BQA1 whole entry partner): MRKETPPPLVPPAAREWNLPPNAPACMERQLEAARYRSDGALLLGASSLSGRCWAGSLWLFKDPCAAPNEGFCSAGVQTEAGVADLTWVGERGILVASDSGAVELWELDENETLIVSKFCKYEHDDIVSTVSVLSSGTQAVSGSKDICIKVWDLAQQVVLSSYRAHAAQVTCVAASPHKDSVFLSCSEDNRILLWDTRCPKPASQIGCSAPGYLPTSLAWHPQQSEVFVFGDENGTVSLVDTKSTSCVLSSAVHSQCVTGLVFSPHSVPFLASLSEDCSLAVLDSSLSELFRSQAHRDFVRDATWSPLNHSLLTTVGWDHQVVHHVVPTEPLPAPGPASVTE

Row | IC50 [1, 7] | IC50 [3, 9] | IC50 [4] | IC50 [5] | IC50 [6] | Compound | MTAP intact/deleted ratio [1] | IC50 [2, 8] | IC50 ([1]; HAP1, read-out: HAP1 MTAP deleted IC50) | IC50 ([2]; HAP1, read-out: HAP1 MTAP deleted viability) | IC50 ([3]; HAP1, read-out: MTAP HAP1 intact IC50)
1 | < 100 nM | 100 to 1000 nM | 50 to 500 nM | < 50 nM | < 50 nM | C[C@H]1CC[C@H](c2cccc(Cl)c2)N(C(=O)C(=O)Nc2cnc(N)c(C3CC3)c2)C1 (single isomer, unassigned) [Compound 1119] | A (an IC50 ratio greater than or equal to 10 fold) | < 1000 nM |  |  | 
2 | > 1000 nM | > 1000 nM | > 500 nM | > 500 nM | > 500 nM | Cc1cc(NC(=O)C(=O)N2C[C@H](C)CC[C@H]2c2cc3cn[nH]c3s2)cnc1N (single isomer, unassigned) [Compound 1120] |  | > 10000 nM |  |  | 
3 | > 1000 nM | > 1000 nM | > 500 nM | > 500 nM | > 500 nM | Cc1cc(NC(=O)C(=O)N2C[C@H](C)CC[C@H]2c2cccc(N3CCN(C)CC3)c2)cnc1N (single isomer, unassigned) [Compound 1121] |  | > 10000 nM |  |  | 
4 | 100 to 1000 nM | > 1000 nM | > 500 nM | > 500 nM | > 500 nM | C[C@H]1CC[C@H](c2ccc3sc(CCN(C)C)nc3c2)N(C(=O)C(=O)Nc2cncc(C(N)=O)c2)C1 (single isomer, unassigned) [Compound 1128] |  | 1000 to 10000 nM |  |  | 
5 | < 100 nM | < 100 nM | 50 to 500 nM | < 50 nM | < 50 nM | CCc1cc(NC(=O)C(=O)N2C[C@@H](C)CC[C@@H]2c2ccc3sc([C@H]4CCN(C)C(C)(C)C4)nc3c2)cnc1N (single isomer, unassigned) [Compound 1129] | B (an IC50 ratio greater than or equal to 3 fold but lower than 10 fold) | < 1000 nM |  |  | 
6 | > 1000 nM | > 1000 nM | > 500 nM | > 500 nM | > 500 nM | CO[C@@H]1C[C@@H](c2ccc3scnc3c2)N(C(=O)C(=O)Nc2cnc(N)c(C)c2)C[C@@H]1C (single isomer, unassigned) [Compound 1130] |  | > 10000 nM |  |  | 
7 | < 100 nM | 100 to 1000 nM | 50 to 500 nM | < 50 nM | < 50 nM | CCc1cc(NC(=O)C(=O)N2CC(C)CCC2c2ccc(N3CCC4C(CCCN4C)C3)cc2)cnc1N (single isomer, unassigned) [Compound 1132] | A (an IC50 ratio greater than or equal to 10 fold) | < 1000 nM |  |  | 
8 | > 1000 nM | > 1000 nM | > 500 nM | > 500 nM | > 500 nM | CCc1cc(NC(=O)C(=O)N2C[C@H](C)CC[C@H]2c2ccc3sc(CCN(C)C)nc3c2)cnc1N (single isomer, unassigned) [Compound 1133] |  | 1000 to 10000 nM |  |  | 
9 | < 100 nM | 100 to 1000 nM | < 50 nM | < 50 nM | < 50 nM | Cc1cc(NC(=O)C(=O)N2C[C@@H](C)CC[C@@H]2c2ccc3sc([C@H]4CCN(C)C(C)(C)C4)nc3c2)cnc1C (single isomer, unassigned) [Compound 1135] | A (an IC50 ratio greater than or equal to 10 fold) | < 1000 nM |  |  | 
10 | < 100 nM | 100 to 1000 nM | 50 to 500 nM | < 50 nM | < 50 nM | CCc1cc(NC(=O)C(=O)N2C[C@@H](C)CC[C@@H]2c2ccc3sc([C@H]4CCN(C)C(=O)C4)nc3c2)cnc1N (single isomer, unassigned) [Compound 1136] | A (an IC50 ratio greater than or equal to 10 fold) | < 1000 nM |  |  | 
11 | 100 to 1000 nM | > 1000 nM | > 500 nM | > 500 nM | > 500 nM | CCc1cc(NC(=O)C(=O)N2C[C@H](C)[C@H](OC)C[C@H]2c2ccc3scnc3c2)cnc1N (single isomer, unassigned) [Compound 1138] |  | 1000 to 10000 nM |  |  | 
12 | < 100 nM | 100 to 1000 nM | 50 to 500 nM | < 50 nM | < 50 nM | CCc1cc(NC(=O)C(=O)N2C[C@@H](C)CC[C@@H]2c2ccc(N3CC[C@@H]4CCN(C)C[C@@H]4C3)cc2)cnc1N (single isomer, unassigned) [Compound 1144] | A (an IC50 ratio greater than or equal to 10 fold) | < 1000 nM |  |  | 
13 | < 100 nM | < 100 nM | < 50 nM | < 50 nM | < 50 nM | COc1ncc(NC(=O)C(=O)N2C[C@@H](C)CC[C@@H]2c2ccc3sc(CCN(C)C)nc3c2)cc1C(N)=O (single isomer, unassigned) [Compound 1146] | A (an IC50 ratio greater than or equal to 10 fold) | < 1000 nM |  |  | 
14 | > 1000 nM | > 1000 nM | > 500 nM | > 500 nM | > 500 nM | CCc1cc(NC(=O)C(=O)N2C[C@H](C)CC[C@H]2c2ccc(N3CCOC4(CN(C)C4)C3)cc2)cnc1N (single isomer, unassigned) [Compound 1150] |  | > 10000 nM |  |  | 
15 | < 100 nM | < 100 nM | < 50 nM | < 50 nM | < 50 nM | C[C@H]1CC[C@H](c2ccc3sc(C4CCN(C)CC4)nc3c2)N(C(=O)C(=O)Nc2cnc(N)c([C@@H]3CCOC3)c2)C1 (single isomer, unassigned) [Compound 1154] | A (an IC50 ratio greater than or equal to 10 fold) | < 1000 nM |  |  | 
16 | < 100 nM | < 100 nM | < 50 nM | < 50 nM | < 50 nM | C[C@@H]1CC[C@@H](c2ccc3nn(CCN(C)C)cc3c2)N(C(=O)C(=O)Nc2cnc(N)c(C3CC3)c2)C1 (single isomer, unassigned) [Compound 1156] | A (an IC50 ratio greater than or equal to 10 fold) | < 1000 nM |  |  | 
17 | > 1000 nM | > 1000 nM | > 500 nM | > 500 nM | > 500 nM | Cc1cc(NC(=O)C(=O)N2C[C@@H](C)[C@@H](CC(C)C)C[C@@H]2c2ccc3scnc3c2)cnc1N (single isomer, unassigned) [Compound 1157] |  | > 10000 nM |  |  | 
18 | < 100 nM | 100 to 1000 nM | 50 to 500 nM | < 50 nM | < 50 nM | CO[C@@H]1C[C@@H](c2ccc3scnc3c2)N(C(=O)C(=O)Nc2cncc(C(N)=O)c2)C[C@@H]1C (single isomer, unassigned) [Compound 1161] | A (an IC50 ratio greater than or equal to 10 fold) | < 1000 nM |  |  | 
19 | < 100 nM | < 100 nM | 50 to 500 nM | < 50 nM | < 50 nM | Cc1cc(NC(=O)C(=O)N2C[C@@H](C)CC[C@@H]2c2ccc3snc(C)c3c2)cnc1N (single isomer, unassigned) [Compound 1166] | B (an IC50 ratio greater than or equal to 3 fold but lower than 10 fold) | < 1000 nM |  |  | 
20 | < 100 nM | 100 to 1000 nM | 50 to 500 nM | < 50 nM | < 50 nM | Cc1nc2cc([C@@H]3CC[C@H](C)CN3C(=O)C(=O)Nc3cnc(N)c(C)c3)ccc2o1 (single isomer, unassigned) [Compound 1170] | A (an IC50 ratio greater than or equal to 10 fold) | < 1000 nM |  |  | 
21 | < 100 nM | < 100 nM | 50 to 500 nM | < 50 nM | < 50 nM | CCc1cc(NC(=O)C(=O)N2[C@@H](C)CCC[C@H]2c2ccc3sc(C4CCN(C)CC4)nc3c2)cnc1N (single isomer, unassigned) [Compound 1173] | A (an IC50 ratio greater than or equal to 10 fold) | < 1000 nM |  |  | 
22 | > 1000 nM | > 1000 nM | > 500 nM | > 500 nM | > 500 nM | COCCc1nc2cc([C@H]3CC[C@H](C)CN3C(=O)C(=O)Nc3cnc(N)c(C4CC4)c3)ccc2s1 (single isomer, unassigned) [Compound 1176] |  | > 10000 nM |  |  | 

Row | Compound | IC50 [1, 7] | IC50 [3, 9] | IC50 [4] | IC50 [5] | IC50 [6] | MTAP intact/deleted ratio [1] | IC50 [2, 8] | IC50 ([1]; HAP1, read-out: HAP1 MTAP deleted IC50) | IC50 ([2]; HAP1, read-out: HAP1 MTAP deleted viability) | IC50 ([3]; HAP1, read-out: MTAP HAP1 intact IC50)
23 | C[C@H]1CC[C@H](c2ccc3sncc3c2)N(C(=O)C(=O)Nc2cnc(N)c(C3CC3)c2)C1 (single isomer, unassigned) [Compound 1153] |  |  | 50 to 500 nM | < 50 nM | < 50 nM | A (an IC50 ratio greater than or equal to 10 fold) |  | < 100 nM | < 1000 nM | 100 to 1000 nM
